Results taken from ChEMBL document CHEMBL5036331 (J Med Chem, 2021).
≈ marks a conversion by molar mass, not a printed value.

Experiments:
[1] = Clearance in Wistar-Han rat hepatocytes at 1 uM measured for 2 to 90 mins by LC-MS/MS; assay type: ADME, cell-based, Hepatocyte; details: Wistar-Han, time 2-90 min
[2] = Metabolic stability in Wistar-Han rat hepatocytes at 1 uM measured for 2 to 90 mins by LC-MS/MS; assay type: ADME, cell-based, Hepatocyte; details: time 2-90 min
[3] = Aqueous solubility of the compound at pH 6.5 for 24 hrs by HPLC-MS/MS; assay type: physicochemical
A2780 = assay: cells; assay type: functional, cell-based; details: Homo sapiens, A2780, 96 h
Description: Antiproliferative activity against human A2780 cells assessed as inhibition of cell growth in presence of fetal calf serum incubated for 96 hrs measured by celltiter-glo luminescent cell viability assay

MOLM-13 = assay: cells; assay type: functional, cell-based; details: Homo sapiens, MOLM-13, 96 h
Description: Antiproliferative activity against human MOLM-13 cells assessed as inhibition of cell growth in presence of fetal calf serum incubated for 96 hrs measured by celltiter-glo luminescent cell viability assay

| Structure (SMILES) | CLhep predicted at 1 µM [1] [mL/min/kg] | Stability [2] | solubility at 24 h [3] [µg/mL] | IC50 (A2780) [nM] | IC50 (MOLM-13) [nM] |
| --- | --- | --- | --- | --- | --- |
| COc1cc(F)ccc1-c1nc(Nc2cc(F)c(F)c(CS(C)(=N)=O)c2)ncc1F (centres undefined) | 41.7 | Stable |  |  |  |
| COc1cc(CS(C)(=N)=O)cc(Nc2ncc(F)c(-c3ccc(F)cc3OC)n2)c1 (centres undefined) | 38.3 |  | 5 (≈ 11.5 µM) |  |  |
| COc1cc(F)ccc1-c1cc(Nc2cc(C[S@](C)(=N)=O)ccn2)ncc1F |  |  |  | 52 | 42 |
| COc1cc(F)ccc1-c1nc(Nc2cc(F)c(F)c(CS(C)(=O)=NC#N)c2)ncc1F (centres undefined) | 55 | Unstable | 0.2 (≈ 0.43 µM) | 37 |  |

The remaining lines, values ahead:

| CLhep predicted at 1 µM [1] [mL/min/kg] | Stability [2] | solubility at 24 h [3] [µg/mL] | IC50 (A2780) [nM] | IC50 (MOLM-13) [nM] | Structure (SMILES) |
| --- | --- | --- | --- | --- | --- |
| 50 | Unstable | 17 (≈ 47.2 µM) | 692 |  | COc1cc(F)ccc1-c1nc(Nc2cc(F)cc(CN)c2)ncc1F |
| 28.3 |  | 24 (≈ 56.8 µM) |  |  | COc1cc(F)ccc1-c1nc(Nc2cc(F)cc(CS(C)(=N)=O)c2)ncc1F (stereo in doubt; 9) |
| 58.3 |  | 0.5 (≈ 1.02 µM) | 262 |  | COc1cc(F)ccc1-c1nc(Nc2cc(F)cc(CS(=O)(CCCO)=NC#N)c2)ncc1F (centres undefined) |
